Experimental data as given in US4762789A, “Serodiagnostic reagent for entamoeba histolytica” (priority 1986, dated 1988).
Read-outs that look alike come from different tables or passages of the source. Non-standard residues stand in square brackets, D forms with d. Residues, ends and D or L forms follow the SMILES beside them. *: point of attachment. Sta = CC(C)C[C@H](N)[C@@H](O)CC(=O)O; Isovaleryl = CC(C)CC(=O)*

Assays:
[1] = test system: neutral thiol proteinase; test: Effect of DTT on enzyme activity in assays; format: biochemical, Entamoeba histolytica; details: 2 mM DTT
Experimental: 2 mM DTT was maintained throughout as it enhanced activity 2-4-fold in assays and prolonged stability of the enzyme during storage. Even so, as much as 25% of the activity was lost per day in storage at -20° C.
All assays were performed in 100 mM Tris/HCl, 2 mM DTT, pH 7.4 unless otherwise noted.

[2] = test system: culture supernatant proteinase activity (Entamoeba histolytica trophozoites); test: Inhibition of culture supernatant proteolytic activity, Z-Arg-Arg-AMC assay; format: biochemical
Experimental: (§1) "Log-phase" trophozoites (72 hours after passage) were washed to remove serum, and incubated in PBS with penicillin/streptomycin for 3 hours at 37° C. Amebae maintained greater than 90% viability as judged by Trypan blue exclusion and the absence of cytosolic alcohol dehydrogenase activity (Vallee 1955) in the PBS after incubation. Amebae were centrifuged, and the resulting supernatant passed through a 0.45 micron filter. This was designated as crude culture supernatant (CS).
The Z-Arg-Arg-AMC assay is based on the fluorescence of the cleaved AMC group at 460 nm when excited at 380 nm (Castillo, et al, 1979). Enzyme samples (5-25 microliters) were added to a 4 micromolar solution of Z-Arg-Arg-AMC in buffer to a total volume of 2 ml. The rate of substrate hydrolysis at room temperature was determined from the rate of increase of fluorescence, monitored on a continuously recording spectrofluorometer (Aminco SPF-500; American Instrument Co., Silver Spring, MD). The scale was calibrated with a stock solution of 1.3 micromolar AMC (Sigma).
(§2) Inhibitors were preincubated with the enzyme at the indicated concentrations (See Table 1) for 20 minutes at ambient temperature; substrate was then added and proteolytic activity assayed against Z-Arg-Arg-AMC. All inhibitors were obtained from Sigma except pepstatin A (Transformation Research, Inc., Farminham, MA) and bovine serum (Biofluids). TLCK was prepared as a stock solution in dimethyl sulfoxide (DMSO). Phenlylmethylsulfonyl fluoride (PMSF), pepstatin A, and 1,10-phenanthroline stock solutions were made up in ethanol. An equal volume of DMSO or ethanol alone was tested with enzynme and inhibition was calculated relative to the appropriate solvent control.

[3] = test system: Mono P-purified enzyme (neutral thiol proteinase); test: Inhibition of MonoP purified enzyme, Azocoll assay; format: biochemical, Entamoeba histolytica; details: for Activity as % of control (without inhibitor), Mono P-purified Enzyme: Azocoll assay; for Effect of inhibitor on proteolytic activity of purified enzyme: at the concentrations tested (Table I)
Experimental: Fractions of peak activity from the anion exchange column were pooled and dialyzed overnight against buffer (25 mM bis-Tris, 2 mM DTT, pH 7.1) and applied to a MonoP chromatofocusing column at a flow rate of 0.25 ml/min. Typically, about 3 ml at 0.5 mg/ml were injected. Protein was eluted at a flow rate of 0.5 ml/min over a pH gradient of 7-5 formed with 10% Polybuffer 74, pH 5. (Polybuffer 74 is the Trademark of Pharmacia Inc., 800 Centennial Avenue, Piscataway, NJ 08854 for an amphoteric chromatofocusing buffer.) The gradient was generated with the GP-250 gradient programmer and continuously monitored with a pH meter and flow cell. Fractions were collected and checked for activity as described above.
(§3) Azocollytic activity was measured by incubation of 3 mg Azocoll with 10-100 microliters of enzyme (1 ml reaction volume) for 3-16 hours at 37° C. The tubes were then vortexed, microfuged, and the amount of degradation determined from the absorbance of the supernatant at 540 nm (A540). Control tubes were incubated without enzyme; bovine trypsin (5 micrograms; Sigma) was used to determine the total available substrate.
(§4) All inhibitors were obtained from Sigma except pepstatin A (Transformation Research, Inc., Farminham, MA) and bovine serum (Biofluids). TLCK was prepared as a stock solution in dimethyl sulfoxide (DMSO). Phenlylmethylsulfonyl fluoride (PMSF), pepstatin A, and 1,10-phenanthroline stock solutions were made up in ethanol. An equal volume of DMSO or ethanol alone was tested with enzynme and inhibition was calculated relative to the appropriate solvent control.

[4] = test system: lysate and culture supernatant proteolytic activity; format: biochemical, Entamoeba histolytica
Experimental: as §1
For extracts, trophozoites were resuspended in PBS with penicillin/streptomycin and lysed in a nitrogen cavitation bomb (Kontes Glass Co.; Vineland, N.J.) after equilibration at 30 atm (3×10^6N/m^2) for 1 hour at 40° C. After centrifugation, the supernatant of this preparation was passed through a 0.45 micron filter and designated as soluble "lysate".
as §2

[5] = test system: culture supernatant proteinase activity (Entamoeba histolytica trophozoites); test: Inhibition of culture supernatant proteolytic activity, Azocoll assay; format: biochemical; details: inhibitor 2 mM
Experimental: as §1, §3, §4

[6] = test system: Plasminogen; test: Plasminogen activator assay (125I-fibrin plates); format: biochemical; details: 3 hours; 100 microliters culture supernatant or lysate; urokinase 10 ploug units; less plasminogen-free control
Experimental: Plasminogen activator activity was determined by the method of Unkeless, et al. (1973) as modified by Aggeler, et al. (1981). Briefly, 24-well plates were coated with [^125 I]-labeled fibrinogen, and incubated with calf serum for two hours at 37° C. to convert fibrinogen to fibrin. Plasminogen (280 ng; final concentration, 6 nM) was added in 50 mM Tris/HCl (pH 7.8) with 100 microliters of culture supernatant or amebic lysate or 50 microliters of MonoP-purified enzyme, to a final volume of 0.5 ml. Controls were incubated without plasminogen added. Aliquots of supernatant (50 microliters) from quadruplicate wells were counted in a gamma counter (Auto-Gamma 500; Packard Instrument Corp.; Downer's Grove, IL). Total available fibrin was determined by trypsin digest. Urokinase (10 ploug units, Calbiochem; La Jolla, CA) was assayed for comparison. Results were expressed as the percentage of total available fibrin degraded less the percentage degraded by the corresponding plasminogen-free control.

[7] = test system: type I collagen; test: Degradation of type I collagen, SDS-PAGE; format: biochemical, bovine; details: 3.5 hours at 37° C.
Experimental: 40 microgram aliquots of fibronectin (Bethesda Research Laboratories (BRL); Bethesda, MD), laminin (BRL), or type 1 collagen ("Vitrogen 100"), (Vitrogen 100 is the Trademark of Collagen Corp., Palo Alto, CA for a sterile solution of purified bovine dermal type I collagen), diluted to 1 mg/ml in buffer with 150 mM NaCl, were mixed with 40 microliters of MonoP purified enzyme or 10-20 microliters of culture supernatant. Volumes were brought to 80 microliters with 100 mM Tris, pH 7.2, and DTT was added to a final concentration of 2 mM. Samples were incubated for 3.5 hours (fibronectin and collagen) or 20 hours (laminin) at 37° C. along with matched amounts of substrate or enzyme alone as controls. Collagen was also incubated with 0.5 micrograms of TPCK trypsin (trypsin with tosyl-phenylalanine-chloromethyl-ketone to inhibit any contaminating chymotrypsin, (Worthington Biochemical Corp.; Freehold, NJ) to assay for non-specific cleavage.
Reactions were terminated with 2x sample buffer, and analyzed by SDS-PAGE (laminin with 5% and 10% gels; fibronectin with 7% gels; collagen with 10% gels) for evidence of degradation; 80 microliters was loaded into each lane.

[8] = at the concentrations tested (Table I)

For `O[C@H](CS)[C@H](O)CS` (racemic) [DTT, DL-dithiothreitol], which “enhancement of enzyme activity in assays” value [1] is on record?
The value was 2-4 -fold.

With `c1cnc2c(c1)ccc1cccnc12` [1,10-phenanthroline] as the molecule, how does the “Activity as % of control (without inhibitor), Culture Supernatant” value ([2]; inhibitor 2 mM, 20 min) read?
Its value is 100 % of control.

And the “Activity as % of control (without inhibitor), Mono P-purified Enzyme” value ([3]; inhibitor 2 mM)?
The value was 100 % of control.

What about the “Effect of inhibitor on proteolytic activity of lysate and culture supernatant” value [4, 8] of the same molecule?
The value was “not affected”.

With `CCN1C(=O)C=CC1=O` [N--ethylmaleimide (NEM), N-ethylmaleimide] as the molecule, how does the “Activity as % of control (without inhibitor), Culture Supernatant” value ([2]; inhibitor 5 mM, 20 min preincubation) read?
Its value is 5 % of control.

And the “Effect of inhibitor on proteolytic activity of purified enzyme” value (“Effect of inhibitor … of purified enzyme” for short) [3]?
Its value is “completely inhibited”.

And the “Activity as % of control (without inhibitor), Mono P-purified Enzyme” value ([3]; inhibitor 5 mM)?
Its value is 0 % of control.

And the “Effect of inhibitor on proteolytic activity of lysate and culture supernatant” value [4, 8]?
Its value is “completely inhibited”.

Which results are given for `O=C(O)CN(CCN(CC(=O)O)CC(=O)O)CC(=O)O` [ethylenediaminetetracetic acid (EDTA), ethylenediaminetetracetic acid]?
Activity as % of control (without inhibitor), Culture Supernatant ([2]; inhibitor 10 mM, 20 min): 100 % of control; Activity as % of control (without inhibitor), Mono P-purified Enzyme ([3]; inhibitor 10 mM): 100 % of control; Effect of inhibitor on proteolytic activity of lysate and culture supernatant [4]: not affected

For `O=C(O)CI` [iodoacetate], which “Activity as % of control (without inhibitor), Culture Supernatant” value ([2]; inhibitor 3 mM, 20 min) is on record?
The value was 0 % of control.

And the “Effect of inhibitor … of purified enzyme” value [3]?
Its value is “completely inhibited”.

What about the “Activity as % of control (without inhibitor), Mono P-purified Enzyme” value ([3]; inhibitor 3 mM) of the same molecule?
The value was 0 % of control.

What about the “Effect of inhibitor on proteolytic activity of lysate and culture supernatant” value [4] of the same molecule?
The value was “completely inhibited”.

What does the source list for `CC(=O)N[C@@H](CC(C)C)C(=O)N[C@@H](CC(C)C)C(=O)N[C@H](C=O)CCCNC(=N)N` [leupeptin]?
Activity as % of control (without inhibitor), Culture Supernatant ([2]; inhibitor 10 microM, 20 min): 68 % of control; Effect of inhibitor on proteolytic activity of purified enzyme [3]: completely inhibited; Activity as % of control (without inhibitor), Mono P-purified Enzyme ([3]; inhibitor 10 microM): 16 % of control; Activity as % of control (without inhibitor), Mono P-purified Enzyme ([3]; inhibitor 50 microM): 0 % of control

Which “Activity as % of control (without inhibitor), Culture Supernatant” value ([2]; inhibitor 100 microgram/ml, 20 min) does the source give for `CC(C)CC(=O)N[C@H](C(=O)N[C@H](C(=O)N[C@@H](CC(C)C)[C@@H](O)CC(=O)N[C@@H](C)C(=O)N[C@@H](CC(C)C)[C@@H](O)CC(=O)O)C(C)C)C(C)C` [pepstatin A] (Isovaleryl-VV[Sta]A[Sta]-OH) here?
Its value is 100 % of control.

And the “Activity as % of control (without inhibitor), Mono P-purified Enzyme” value ([3]; inhibitor 100 microgram/ml)?
The value was 100 % of control.

What about the “Effect of inhibitor on proteolytic activity of lysate and culture supernatant” value [4, 8] of the same molecule?
The value was “not affected”.

Which results are given for `O=S(=O)(F)Cc1ccccc1` [phenylmethylsulfonyl fluoride (PMSF), phenylmethylsulfonyl fluoride]?
Activity as % of control (without inhibitor), Mono P-purified Enzyme ([3]; inhibitor 2 mM): 100 % of control; Activity as % of control (without inhibitor), Culture Supernatant [5]: 100 % of control; Effect of inhibitor on proteolytic activity of lysate and culture supernatant [4, 8]: not affected

For `Cc1ccc(S(=O)(=O)N[C@@H](CCCCN)C(=O)CCl)cc1` [tosyl-lysyl-chloromethyl ketone (TLCK), tosyl-lysyl-chloromethyl ketone], which “Activity as % of control (without inhibitor), Culture Supernatant” value ([2]; inhibitor 0.1 mM, 20 min) is on record?
The value was 0 % of control.

And the “Effect of inhibitor … of purified enzyme” value [3]?
The value was “completely inhibited”.

And the “Activity as % of control (without inhibitor), Mono P-purified Enzyme” value ([3]; inhibitor 0.1 mM)?
The value was 0 % of control.

And the “Effect of inhibitor on proteolytic activity of lysate and culture supernatant” value [4, 8]?
The value was “completely inhibited”.

For “alpha1 -proteinase inhibitor: protein proteinase inhibitor obtained from Sigma”, which “Effect of inhibitor … of purified enzyme” value [3] is on record?
The value was “completely inhibited”.

With urokinase as the molecule, how does the “available fibrin degraded through plasminogen activation” value [6] read?
Its value is 38%.

B1: trypsin: TPCK trypsin (Worthington) used to assay non-specific cleavage of collagen (protein, UniProt P00760 24-246, looked up)
Serine protease 1: IVGGYTCGANTVPYQVSLNSGYHFCGGSLINSQWVVSAAHCYKSGIQVRLGEDNINVVEGNEQFISASKSIVHPSYNSNTLNNDIMLIKLKSAASLNSRVASISLPTSCASAGTQCLISGWGNTKSSGTSYPDVLKCLKAPILSDSSCKSAYPGQITSNMFCAGYLEGGKDSCQGDSGGPVVCSGKLQGIVSWGSGCAQKNKPGVYTKVCNYVSWIKQTIASN
modifications: TPCK-treated
notes: TPCK trypsin (Worthington) used to assay non-specific cleavage of collagen
For B1, which “degradation of type I collagen” value [7] is on record?
Its value is “lack of non-specific proteolysis”.
